# From patent US8481540B2, “Inhibitors of bruton's tyrosine kinase” (Hoffmann-La Roche Inc., priority 2010, dated 2013)
# Like-named read-outs stand apart in the source and are kept apart here.
# Experiments:
# B cells in human blood = assay: Inhibition of B cell activation in whole blood measured by CD69 expression; type: cell-based; conditions: read-out: Human Whole Blood
# Method in brief: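 Heparinised human whole blood was preincubated with compound (nine-point, three-fold dilutions) for 30 min at 37 °C. It was then stimulated with 50 μg/ml goat F(ab′)2 anti-human IgM for 20 hours. CD20/CD69 staining, red-cell lysis and flow cytometry gave percent CD69-positive cells, from which IC50 values were calculated.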
# [1] = CD69-positive, CD20-positive cells after anti-IgM stimulation, human whole blood, 20 hours
Compound,melting point [°C],"IC50 (B cells in human blood; Homo sapiens, 20 h) [nM]",IC50 (B cells in human blood; [1]) [nM]
"Cn1nc(-c2cccc(-n3ncc4cc(C(C)(C)C)cc(F)c4c3=O)c2CO)cc(Nc2ccc(S(C)(=O)=O)cn2)c1=O [I-3, 6-tert-Butyl-8-fluoro-2-[2-hydroxymethyl-3-[5-(5-methanesulfonyl-pyridin-2-ylamino)-1-methyl-6-oxo-1,6-dihydro-pyridazin-3-yl]-phenyl}-2H-phthalazin-1-one]",225 to 230,45,–
"COC1CN(Cc2ccc(Nc3cc(-c4cccc(-n5ncc6cc(C(C)(C)C)cc(F)c6c5=O)c4CO)nn(C)c3=O)nc2)C1 [I-4, 6-tert-Butyl-8-fluoro-2-(2-hydroxymethyl-3-{5-[5-(3-methoxy-azetidin-1-ylmethyl)-pyridin-2-ylamino]-1-methyl-6-oxo-1,6-dihydro-pyridazin-3-yl}-phenyl)-2H-phthalazin-1-one]",140 to 142,–,122
"CN1[C@@H]2CC[C@H]1CN(Cc1ccc(Nc3cc(-c4cccc(-n5ncc6cc(C(C)(C)C)cc(F)c6c5=O)c4CO)nn(C)c3=O)nc1)C2 [I-5, 6-tert-Butyl-8-fluoro-2-(2-hydroxymethyl-3-{1-methyl-5-[5-(8-methyl-3,8-diaza-bicyclo[3.2.1]oct-3-ylmethyl)-pyridin-2-ylamino]-6-oxo-1,6-dihydro-pyridazin-3-yl}-phenyl)-2H-phthalazin-1-one]",162 to 165,–,25
"CN(C)CC(C)(C)Oc1ccc(Nc2cc(-c3cccc(-n4ncc5cc(C(C)(C)C)cc(F)c5c4=O)c3CO)nn(C)c2=O)nc1 [I-6, 6-tert-Butyl-2-(3-{5-[5-(2-dimethylamino-1,1-dimethyl-ethoxy)-pyridin-2-ylamino]-1-methyl-6-oxo-1,6-dihydro-pyridazin-3-yl}-2-hydroxymethyl-phenyl)-8-fluoro-2H-phthalazin-1-one]",136 to 144,–,31
"Cn1nc(-c2cccc(-n3ncc4cc(C(C)(C)C)cc(F)c4c3=O)c2CO)cc(Nc2ccc(CN3CCC3)cn2)c1=O [I-7, 2-{3-[5-(5-Azetidin-1-ylmethyl-pyridin-2-ylamino)-1-methyl-6-oxo-1,6-dihydro-pyridazin-3-yl]-2-hydroxymethyl-phenyl}-6-tert-butyl-8-fluoro-2H-phthalazin-1-one]",160 to 163,–,20
"CN(C)Cc1ccc(Nc2cc(-c3cccc(-n4ncc5cc(C(C)(C)C)cc(F)c5c4=O)c3CO)nn(C)c2=O)nc1 [I-8, 6-tert-Butyl-2-{3-[5-(5-dimethylaminomethyl-pyridin-2-ylamino)-1-methyl-6-oxo-1,6-dihydro-pyridazin-3-yl]-2-hydroxymethyl-phenyl}-8-fluoro-2H-phthalazin-1-one]",170 to 174,–,20
"CN1CCN(c2cnc(Nc3cc(-c4cccc(-n5ncc6cc(C(C)(C)C)cc(F)c6c5=O)c4CO)nn(C)c3=O)cn2)CC1 [I-34, 6-tert-Butyl-8-fluoro-2-{2-hydroxymethyl-3-[1-methyl-5-(4-methyl-3,4,5,6-tetrahydro-2H-[1,2′]bipyrazinyl-5′-ylamino)-6-oxo-1,6-dihydro-pyridazin-3-yl]-phenyl}-2H-phthalazin-1-one]",235 to 240,–,125
"Cn1nc(-c2cccc(-n3ncc4cc(C(C)(C)C)cc(F)c4c3=O)c2CO)cc(Nc2cnc(CNC3CCC3)cn2)c1=O [I-35, 6-tert-Butyl-2-{3-[5-(5-cyclobutylaminomethyl-pyrazin-2-ylamino)-1-methyl-6-oxo-1,6-dihydro-pyridazin-3-yl]-2-hydroxymethyl-phenyl}-8-fluoro-2H-phthalazin-1-one]",163 to 167,–,74
"CN1CCN(Cc2cnc(Nc3cc(-c4cccc(-n5ncc6cc(C(C)(C)C)cc(F)c6c5=O)c4CO)nn(C)c3=O)cn2)CC1 [I-37, 6-tert-Butyl-8-fluoro-2-(2-hydroxymethyl-3-{1-methyl-5-[5-(4-methyl-piperazin-1-ylmethyl)-pyrazin-2-ylamino]-6-oxo-1,6-dihydro-pyridazin-3-yl}-phenyl)-2H-phthalazin-1-one]",215 to 218,–,84
"CN(C)CC(C)(C)Oc1cnc(Nc2cc(-c3cccc(-n4ncc5cc(C(C)(C)C)cc(F)c5c4=O)c3CO)nn(C)c2=O)cn1 [I-38, 6-tert-Butyl-2-(3-{5-[5-(2-dimethylamino-1,1-dimethyl-ethoxy)-pyrazin-2-ylamino]-1-methyl-6-oxo-1,6-dihydro-pyridazin-3-yl}-2-hydroxymethyl-phenyl)-8-fluoro-2H-phthalazin-1-one]",235 to 240,–,12
"CN(C)CC(C)(C)Oc1ccc(Nc2cc(-c3cccc(-n4ncc5cc(C(C)(C)C)cc(F)c5c4=O)c3CO)nn(C)c2=O)nn1 [I-39, 6-tert-Butyl-2-(3-{5-[6-(2-dimethylamino-1,1-dimethyl-ethoxy)-pyridazin-3-ylamino]-1-methyl-6-oxo-1,6-dihydro-pyridazin-3-yl}-2-hydroxymethyl-phenyl)-8-fluoro-2H-phthalazin-1-one]",140 to 145,–,21
"CN1CCC(c2ccc(Nc3cc(-c4cccc(-n5ncc6cc(C(C)(C)C)cc(F)c6c5=O)c4CO)nn(C)c3=O)nn2)CC1 [I-40, 6-tert-Butyl-8-fluoro-2-(2-hydroxymethyl-3-{1-methyl-5-[6-(1-methyl-piperidin-4-yl)-pyridazin-3-ylamino]-6-oxo-1,6-dihydro-pyridazin-3-yl}-phenyl)-2H-phthalazin-1-one]",260 to 265,–,44
"COCCNCc1ccc(Nc2cc(-c3cccc(-n4ncc5cc(C(C)(C)C)cc(F)c5c4=O)c3CO)nn(C)c2=O)nc1 [I-42, 6-tert-Butyl-8-fluoro-2-[2-hydroxymethyl-3-(5-{5-[(2-methoxy-ethylamino)-methyl]-pyridin-2-ylamino}-1-methyl-6-oxo-1,6-dihydro-pyridazin-3-yl)-phenyl]-2H-phthalazin-1-one]",108 to 110,–,47
"CN1C[C@@H]2C[C@H]1CN2Cc1ccc(Nc2cc(-c3cccc(-n4ncc5cc(C(C)(C)C)cc(F)c5c4=O)c3CO)nn(C)c2=O)nc1 [I-43, 6-tert-Butyl-8-fluoro-2-(2-hydroxymethyl-3-{1-methyl-5-[5-((1S,4S)-5-methyl-2,5-diaza-bicyclo[2.2.1]hept-2-ylmethyl)-pyridin-2-ylamino]-6-oxo-1,6-dihydro-pyridazin-3-yl}-phenyl)-2H-phthalazin-1-one]",183 to 186,–,41
Cn1nc(Nc2cc(-c3cccc(-n4ncc5cc(C(C)(C)C)cc(F)c5c4=O)c3CO)nn(C)c2=O)cc1CN1CCC1 [I-58],214 to 217,–,2
CN1CCn2nc(Nc3cc(-c4cccc(-n5ncc6cc(C(C)(C)C)cc(F)c6c5=O)c4CO)nn(C)c3=O)cc2C1 [I-59],188 to 193,–,5
Cn1nc(-c2cccc(-n3ncc4cc(C(C)(C)C)cc(F)c4c3=O)c2CO)cc(Nc2cc3n(n2)CCN(C2COC2)C3)c1=O [I-60],180 to 185,–,4
"Cn1nc(-c2cccc(-n3ncc4cc(C(C)(C)C)cc(F)c4c3=O)c2CO)cc(Nc2ccn(C[C@@H](O)CO)n2)c1=O [I-68, 6-tert-Butyl-2-(3-{5-[1-((R)-2,3-dihydroxy-propyl)-1H-pyrazol-3-ylamino]-1-methyl-6-oxo-1,6-dihydro-pyridazin-3-yl}-2-hydroxymethyl-phenyl)-8-fluoro-2H-phthalazin-1-one]",245 to 250,–,61
"CCN1CCN(c2ccc(Nc3cc(-c4cccc(-n5ncc6cc(C(C)(C)C)cc(F)c6c5=O)c4CO)nn(C)c3=O)nc2)CC1 [I-69, 6-tert-Butyl-2-(3-{5-[5-(4-ethyl-piperazin-1-yl)-pyridin-2-ylamino]-1-methyl-6-oxo-1,6-dihydro-pyridazin-3-yl}-2-hydroxymethyl-phenyl)-8-fluoro-2H-phthalazin-1-one]",245 to 247,–,18
"Cn1nc(-c2cccc(-n3ncc4cc(C(C)(C)C)cc(F)c4c3=O)c2CO)cc(Nc2ccn(CC(C)(C)O)n2)c1=O [I-70, 6-tert-Butyl-8-fluoro-2-(2-hydroxymethyl-3-{5-[1-(2-hydroxy-2-methyl-propyl)-1H-pyrazol-3-ylamino]-1-methyl-6-oxo-1,6-dihydro-pyridazin-3-yl}-phenyl)-2H-phthalazin-1-one]",165 to 170,–,117
"Cn1nc(-c2cccc(-n3ncc4cc(C(C)(C)C)cc(F)c4c3=O)c2CO)cc(Nc2ccc(CN3C[C@@H]4C[C@H]3CN4)cn2)c1=O [I-84, 6-tert-Butyl-2-[3-(5-{5-[(1S,4S)-1-(2,5-diaza-bicyclo[2.2.1]hept-2-yl)methyl]-pyridin-2-ylamino}-1-methyl-6-oxo-1,6-dihydro-pyridazin-3-yl)-2-hydroxymethyl-phenyl]-8-fluoro-2H-phthalazin-1-one]",> 250,–,242
